Molecular target: T1, rat follicle stimulating hormone receptor (rFSHR) (Rattus norvegicus, UniProt P20395)
T1 construct: expressed in transfected cells
T1 sequence (P20395 18-692): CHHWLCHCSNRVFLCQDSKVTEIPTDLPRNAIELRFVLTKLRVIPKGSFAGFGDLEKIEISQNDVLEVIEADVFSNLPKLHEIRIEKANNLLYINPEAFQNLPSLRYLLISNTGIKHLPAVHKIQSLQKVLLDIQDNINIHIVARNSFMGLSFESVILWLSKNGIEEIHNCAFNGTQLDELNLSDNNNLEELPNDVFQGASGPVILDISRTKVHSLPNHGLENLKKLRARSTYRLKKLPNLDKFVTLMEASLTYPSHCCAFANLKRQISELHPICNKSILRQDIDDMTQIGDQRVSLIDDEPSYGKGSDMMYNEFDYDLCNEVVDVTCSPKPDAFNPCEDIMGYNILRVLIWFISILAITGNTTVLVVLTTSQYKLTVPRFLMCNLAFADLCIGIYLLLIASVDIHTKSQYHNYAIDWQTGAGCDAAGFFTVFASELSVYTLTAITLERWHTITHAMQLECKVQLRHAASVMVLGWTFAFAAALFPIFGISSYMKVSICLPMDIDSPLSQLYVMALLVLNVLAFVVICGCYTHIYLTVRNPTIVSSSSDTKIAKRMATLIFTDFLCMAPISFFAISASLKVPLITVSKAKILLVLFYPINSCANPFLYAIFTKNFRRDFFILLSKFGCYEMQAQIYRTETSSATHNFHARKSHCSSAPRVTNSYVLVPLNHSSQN
Experiment: Intracellular cAMP measurement (HTRF) assay, antagonism of EC70 of hFSH
Type: cell-based
Settings: HEK293 cells expressing rFSHR, 1 ng/ml hFSH (EC70), read-out: Class (IC50 to antagonise an EC70 of FSH receptors agonist such as hFSH)
From the text: Intracellular cAMP Measurement Assay
The Intracellular cAMP measurement assay is a functional cell-based assay used to study GPCR function. This method relies on a Time-Resolved Fluorescence (HTRF) assay to measure the cAMP accumulation upon receptor-mediated Gs protein activation in cells expressing recombinant GPCR or in cells from native tissues. In brief, this method is a competitive immunoassay between native cAMP produced by cells and the cAMP labeled with a fluorescent tag. The endogenously produced cAMP competes with exogenous added d2-labelled cAMP for the cAMP binding site on a Eu3+ cryptate labelled anti-cAMP antibody. The d2-labelled cAMP and the Eu^3+ labelled antibody produces a basal fluroresence via HTRF and therefore an intracellular increase in unlabelled cAMP is detected as decrease in this signal. cAMP is one of the most important intracellular mediators. Its concentration in cells can be increased upon binding of many hormones to their receptors. The most studied pathway consists in the release of α-subunit GTP-binding proteins following ligand-receptor interaction, which in turn activates or inhibits the ATP/cAMP conversion function of adenylate cyclase enzyme. cAMP is then involved in many complex regulatory processes such as protein kinase activation or ion channel gating. This method is widely used to study receptor activation of G protein in cells over-expressing GPCRs or in native cells, including FSH receptors expressing cells (Gabriel et al., Assay Drug Dev. Technol., 1, 291-303, 2003).
Transfection and cell culture: The cDNA encoding the rat follicle stimulating hormone receptor (rFSHR), (accession number NM_199237, NCBI Nucleotide database browser) was subcloned into an expression vector containing also the hygromycin resistance gene. Transfection of this vector into HEK293 cells with PolyFect reagent (Qiagen) according to supplier's protocol, and hygromycin treatment allowed selection of antibiotic resistant cells which had integrated stably one or more copies of the plasmid. Positive cellular clones expressing rFSHR were identified in a functional assay measuring cAMP production in cells following stimulation by addition of purified human follicle stimulating hormone (hFSH).
HTRF cAMP assay: On the day of the experiment, cells were detached from the Petri dish and distributed in a low volume, black-walled 384-well plate at a density of 5,000 cells/well in an assay buffer containing 1 mM IBMX to prevent cAMP degradation by cytoplasmic phosphodiesterases. The determination of the cAMP accumulation was performed using an HTRF assay (Trinquet et al., Anal. Biochem., 358, 126-135, 2006). Briefly, cells were incubated for 3 min in the presence of increasing concentrations of negative allosteric modulators (from 1 nM to 60 μM) and then 30 min in the presence of 1 ng/ml of hFSH, an agonist of rat FSH receptor, that has been determined in previous experiments to correspond to the EC70, a concentration that gives 70% of the maximal response of the agonist, and is in accordance with published data (Fox et al., Mol. Endocrin., 15, 378-389, 2001). […] Cells were then lysed by adding the HTRF assay components, the europium cryptate-labeled anti-cAMP antibody, and the XL665-labeled cAMP analog, previously diluted in a HEPES buffer (50 mM, pH 7.0) containing 0.8 M potassium fluoride, 0.2% (w/v) BSA, and 1% (v/v) Triton X-100, a percentage of detergent that ensure complete cell lysis. Assay was then incubated for 1 hr at room temperature, and HTRF signal was measured after excitation at 337 nm, and dual emission at 620 and 665 nm, using a RubyStar fluorimeter (BMG Labtechnologies). Moreover, the fluorescence ratio of an appropriate range of known concentrations of cAMP standards was also included on each assay plate to produce a standard cAMP curve. […]

| IC50 | SMILES |
| --- | --- |
| 0.15 to 0.4 µM | COc1ccc(C(=O)Nc2ccc(C(C)(C)CCNC(=O)c3cnc4[nH]cnc4c3)cc2)cc1OC [Example 199, 3H-Imidazo[4,5-b]pyridine-6-carboxylic acid {3-[4-(3,4-dimethoxy-benzoylamino)-phenyl]-3-methyl-butyl}-amide] |
| < 0.15 µM | COc1ccc(C(=O)Nc2ccc(C(C)(C)CNC(=O)c3cnc4[nH]ccc4c3)cc2)cc1OC [Example 202] |
| 0.15 to 0.4 µM | COc1ccc(C(=O)Nc2cccc(C(C)(C)CNC(=O)c3cnc4ccccn34)c2)cc1OC [Example 203, Imidazo[1,2-a]pyridine-3-carboxylic acid {2-[3-(3,4-dimethoxy-benzoylamino)-phenyl]-2-methyl-propyl}-amide] |
| ≥ 1 µM | COc1ccc(C(=O)Nc2ccc(C(C)(C)C#N)c(N3CCOCC3)c2)cc1OC [Example 204, N-[4-(Cyano-dimethyl-methyl)-3-morpholin-4-yl-phenyl]-3,4-dimethoxy-benzamide] |
| 0.4 to 1 µM | COc1ccc(C(=O)Nc2ccc(C(C)(C)C#N)c(-c3cnn(C)c3)c2)cc1OC [Example 205, N-[4-(Cyano-dimethyl-methyl)-3-(1-methyl-1H-pyrazol-4-yl)-phenyl]-3,4-dimethoxy-benzamide] |
| < 0.15 µM | COc1ccc(C(=O)Nc2ccc(C(C)(C)C#N)c(-c3cccs3)c2)cc1OC [Example 206, N-[4-(Cyano-dimethyl-methyl)-3-thiophen-2-yl-phenyl]-3,4-dimethoxy-benzamide] |
| 0.15 to 0.4 µM | COc1ccc(C(=O)Nc2ccc(C(C)(C)CNC(=O)c3ccc4[nH]cnc4c3)cc2)cc1OC [Example 207] |
| 0.4 to 1 µM | COc1ccc(C(=O)Nc2ccc(C(C)(C)CNC(=O)c3ccc4[nH]c(C)nc4c3)cc2)cc1OC [Example 208] |
| ≥ 1 µM | COc1ccc(C(=O)Nc2ccc(C(C)(C)CNC(=O)c3ccc4c(c3)nc(C)n4C)cc2)cc1OC [Example 209] |
| 0.4 to 1 µM | COc1ccc(C(=O)Nc2ccc(C(C)(C)CNC(=O)c3ccc4c(c3)n(C)c(=O)n4C)cc2)cc1OC [Example 210] |
| < 0.15 µM | COc1ccc(C(=O)Nc2ccc(C(C)(C)CNC(=O)c3cnc4ccc(F)cn34)cc2)cc1OC [Example 211] |
| ≥ 1 µM | COc1ccc(C(=O)Nc2ccc(C(C)(CO)CNC(=O)c3cnc4ccccn34)cc2)cc1OC (stereo not drawn) [Example 212, Imidazo[1,2-a]pyridine-3-carboxylic acid {2-[4-(3,4-dimethoxy-benzoylamino)-phenyl]-3-hydroxy-2-methyl-propyl}-amide] |
| 0.15 to 0.4 µM | COc1ccc(C(=O)Nc2ccc(C(C)(C)CNC(=O)c3nc4ccncc4[nH]3)cc2)cc1OC [Example 214] |
| 0.4 to 1 µM | COc1ccc(C(=O)Nc2ccc(C(C)(C)CNC(=O)c3c[nH]c4cnccc34)cc2)cc1OC [Example 215] |
| 0.15 to 0.4 µM | COc1ccc(C(=O)Nc2ccc(C(C)(C)CNC(=O)c3c[nH]c4ncc(F)cc34)cc2)cc1OC [Example 216] |
| 0.4 to 1 µM | COc1ccc(C(=O)Nc2ccc(C(C)(C)CCNC(C)=O)c(-c3cccnc3)c2)cc1OC [Example 221, N-(4-(4-acetamido-2-methylbutan-2-yl)-3-(pyridin-3-yl)-phenyl)-3,4-dimethoxybenzamide] |

System: not given
Experiment: not given
Settings: not given

| melting point | SMILES |
| --- | --- |
| 139 to 141 °C | COc1ccc(C(=O)Nc2ccc(C(C)(C)C#N)cc2)cc1OC [Example 1, N-[4-(Cyano-dimethyl-methyl)-phenyl]-3,4-dimethoxy-benzamide] |
| 204 to 207 °C | COc1ccc(C(=O)Nc2ccc(C3(C#N)CC3)cc2)cc1OC [Example 2, N-[4-(1-Cyano-cyclopropyl)-phenyl]-3,4-dimethoxy-benzamide] |
| 164 to 167 °C | N#CC1(c2ccc(NC(=O)c3ccc4c(c3)OCCO4)cc2)CCCC1 [Example 3, 2,3-Dihydro-benzo[1,4]dioxin-6-carboxylic acid [4-(1-cyano-cyclopentyl)-phenyl]-amide] |
| 59 to 61 °C | COc1ccc(C(=O)Nc2cccc(C3(C#N)CCCC3)c2)cc1OC [Example 14, N-[3-(1-Cyano-cyclopentyl)-phenyl]-3,4-dimethoxy-benzamide] |
| 193 to 195 °C | COc1ccc(C(=O)Nc2ccc(C(C)(C)C(N)=O)cc2)cc1OC [Example 21, N-[4-(1-Carbamoyl-1-methyl-ethyl)-phenyl]-3,4-dimethoxy-benzamide] |
| 165 to 167 °C | COc1ccc(C(=O)Nc2ccc(C3(CNC(=O)C(C)(C)C)CCCC3)cc2)cc1OC [Example 23, N-(4-{1-[(2,2-Dimethyl-propionylamino)-methyl]-cyclopentyl}-phenyl)-3,4-dimethoxy-benzamide] |
| 195 to 197 °C | COc1ccc(C(=O)Nc2ccc(C(C)(C)CNC(C)=O)cc2)cc1OC [Example 26, N-[4-(2-Acetylamino-1,1-dimethyl-ethyl)-phenyl]-3,4-dimethoxy-benzamide] |
| 101 to 104 °C | COc1ccc(C(=O)Nc2ccc(C3(CNC(=O)c4cscn4)CCCC3)cc2)cc1OC [Example 29, Thiazole-4-carboxylic acid {1-[4-(3,4-dimethoxy-benzoylamino)-phenyl]-cyclopentylmethyl}-amide] |
| 67 to 69 °C | COC(=O)NCC(C)(C)c1ccc(NC(=O)c2ccc(OC)c(OC)c2)cc1 [Example 52, {2-[4-(3,4-Dimethoxy-benzoylamino)-phenyl]-2-methyl-propyl}-carbamic acid methyl ester] |
| 165 to 167 °C | COc1ccc(C(=O)Nc2ccc(C(C)(C)c3noc(COc4ccccc4)n3)cc2)cc1OC [Example 53, 3,4-Dimethoxy-N-{4-[1-methyl-1-(5-phenoxymethyl-[1,2,4]oxadiazol-3-yl)-ethyl]-phenyl}-benzamide] |
| 204 to 206 °C | COc1ccc(C(=O)Nc2ccc(C3(CNC(C)=O)CC3)cc2)cc1OC [Example 54, N-{4-[1-(Acetylamino-methyl)-cyclopropyl]-phenyl}-3,4-dimethoxy-benzamide] |
| 190 to 191 °C | COc1ccc(C(=O)Nc2ccc(C(C)(C)CN3CCOC3=O)cc2)cc1OC [Example 60, N-{4-[1,1-Dimethyl-2-(2-oxo-oxazolidin-3-yl)-ethyl]-phenyl}-3,4-dimethoxy-benzamide] |
| 110 to 112 °C | COc1cc(C(C)(C)C#N)ccc1NC(=O)c1ccc(OC)c(OC)c1 [Example 75, N-[4-(Cyano-dimethyl-methyl)-2-methoxy-phenyl]-3,4-dimethoxy-benzamide] |
| 132 to 134 °C | COc1ccc(C(=O)Nc2cccc(C(C)(C)CNC(C)=O)c2)cc1OC [Example 88, N-[3-(2-Acetylamino-1,1-dimethyl-ethyl)-phenyl]-3,4-dimethoxy-benzamide] |

Reference: US20100249123A1, “NOVEL BENZAMIDE DERIVATIVES AS MODULATORS OF THE FOLLICLE STIMULATING HORMONE” (ADDEX PHARMA SA, priority 2007, published 2010)
